Data on 2 molecules can be found in patent publication US20190161483A1, “METHODS FOR USING FXR AGONISTS” (Novartis AG, priority 2017, published 2019).

One series has as its system FGRS. The series can be described thus: FGRS effects (specificity).
The subject of the next series is NASH mice. The series can be described thus: Diet-induced (AMLN diet) obese, insulin-resistant NASH model. The series is classed as in vivo, mouse. From the text: A separate model for diet-induced NASH was developed as described by Trevaskis et al. Male C57BI6 mice aged ˜6 weeks were maintained on a high fat (40% kcal; Primex), high fructose (22% by weight), and high cholesterol (2% by weight) diet (Research Diets Inc., New Brunswick, N.J. cat. no. D09100301) for 26 weeks to induce NASH. Control animals received low-fat diet (10% kcal) with no fructose or cholesterol (Research Diets, cat. no. D09100304). […] . Expression of collagen, type I, alpha 1 (Col1a1) and tissue inhibitor of metalloproteinase 1 (Timp1) genes was analyzed by real time quantitative PCR.
. NASH was established in mice by feeding a high trans-fat, high fructose, and high cholesterol diet (AMLN diet) for 26 weeks followed by compound treatment for an additional 4 weeks. […] . […] .

The nature of series [1]: Exposure prediction and exposure-response analysis in NASH patients. In kind it is in vivo, human.
Another series has as its system NASH patients. Nature of the series: Tropifexor 140-250 μg in patients with mild to moderate NASH and F2/F3 fibrosis. The series is classed as in vivo, human. The note with it: dose of about 140 μg to about 250 μg. From the text: Adult male and female patients with EITHER histologic evidence of NASH on liver biopsy within 2 years prior to randomization and elevated ALT, OR phenotypic diagnosis of NASH based on elevated ALT, Type 2 diabetes mellitus or elevated HbA1c and increased BMI, in both cases accompanied by liver fat >10% on centrally-read MRI.
Diagnosis of NASH: Adequate liver biopsy sample for evaluation by Central Reader to confirm Histologic evidence of NASH based on liver biopsy obtained during the Screening period or within 6 months before randomization with a diagnosis consistent with NASH, fibrosis level F2 or F3, and no diagnosis of alternative chronic liver diseases._AND_ALT ≥43 IU/L (males) or ≥28 IU/L (females).
Patients are assigned at the baseline visit to one of the following 3 treatment arms in a ratio of 1:1:1 in a blinded manner. Placebo capsules will be given to maintain blinding.
Arm 3: Once daily (morning, fasting) treatment with matching placebo for 48 weeks
The efficacy variables are: MRI for hepatic fat fraction, Liver Function Test, Liver histology, Coagulation test, Markers of liver fibrosis, NAFLD Fibrosis score, Fasting lipids, Fasting insulin and glucose, Soluble biomarkers.

The next series has as its system FGF19. Nature of the series: Pharmacodynamic marker FGF19 with increasing doses. The series is classed as in vivo. To be noted: increasing doses up to 3000 μg.
For a further series, the system named is STAM mice. The series can be described thus: STAM model of NASH.
Series [2] concerns ANIT-induced cholestatic rats. The series can be described thus: ANIT-induced cholestasis rat model.
Description: Rats were sacrificed 3-5 h after the last dose, blood samples were collected by cardiac puncture, and serum biomarkers of cholestasis, namely alanine transaminase (ALT), aspartate transaminase (AST), alkaline phosphatase (ALP), total bilirubin, total BA, and gamma-glutamyl transpeptidase (GGT) were analyzed.
(§1) Liver sections were fixed in 4% paraformaldehyde for 48 h and shipped for histopathological analysis. Liver damage and collagen deposition were assessed by H&E staining and picrosirius red staining, respectively. […] Quantification of images was done with a positive pixel count algorithm using Aperio software (Aperio, Inc., Vista, Calif.).
The nature of series [3]: Oral gavage toxicity study in dogs for up to 39 weeks. The note with it: dog, in vivo.
Another series concerns NASH subjects. To be noted: FLINT trial; placebo 6%; cited from earlier work.

Description for STAM mice: Further experiments in the STAM model were performed: 2-day old male C57BI/6J mice were injected with streptozotocin and placed on a high-fat diet (HFD) from weeks 4-12 (HFD-32; CLEA-Japan, Tokyo, Japan). […] Hematoxylin & eosin (H&E)-stained sections were evaluated for nonalcoholic fatty liver disease (NAFLD) activity score (NAS) according to previously defined criteria. Liver total lipid-extracts were isolated, and triglycerides were measured using the Triglyceride E-test (Wako Pure Chemical Industries, Ltd., Japan).
as §1

As a reminder, the AUC is concentration integrated over time. The AUC(0-t) is the area under the concentration-time curve up to a stated or last time point. Higher therefore signals more exposure. In the case of `O=C(O)c1cc(F)c2nc(N3C4CC[C@H]3C[C@H](OCc3c(-c5ccccc5OC(F)(F)F)noc3C3CC3)C4)sc2c1` [tropifexor, 2-[(1R,3r,5S)-3-({5-cyclopropyl-3-[2-(trifluoromethoxy)phenyl]-1,2-oxazol-4-yl}methoxy)-8-azabicyclo[3.2.1]octan-8-yl]-4-fluoro-1,3-benzothiazole-6-carboxylic acid], the FGRS effects result in the series on FGRS was “no FGRS effects”. In addition, in the series on NASH mice (0.3 and 0.9 mg/kg dose groups), the “IBA positive staining (inflammation)” value was “normalized to the same level of the control diet group”; the “liver histology: steatosis, ballooning, and inflammation” value is given as “completely reverted”. In addition, the “collagen deposition in liver (trichrome staining)” value with NASH mice (even to levels lower than low-fat diet control mice) is given as “strongly abrogates”. For the same molecule, the ALT/AST result with NASH mice (high dose) is “reduced ALT/AST to an even greater extent”. For the same molecule, in the series with NASH mice (mid- and high dose), the hepatic crown-like structures result is “completely eliminated”. Also, the “ALT and AST levels” value with NASH mice (mid-dose level) was “normalized ALT and AST levels to that of control animals”. In the series on NASH mice (mouse, in vivo), the “mRNA levels of fibrogenic markers Col1a1 and TIMP1” value was “dramatically reduced”; the “steatosis by quantification of liver triglycerides” value is recorded as “Dose-dependent reduction in steatosis”. In addition, in the series with NASH mice (relative to vehicle-treated controls), the “ALT and AST” value is recorded as “dose-dependent reduction”. Moreover, the predicted exposure result in series [1] (200 μg daily in NASH patients) is listed as “approximately 80 ng·hr/ml”. Also, the “NASH patients achieving an AUC >40 ng*h/mL” value in [1] (200 μg dose) is ~95%. For the same molecule, the AUC in [1] (human, in vivo, oral, 200 ug, read-out: exposure level (AUC) in NASH patients) was 80 ng·h/mL. In the series on NASH patients, the “patients with liver fibrosis improvement (at least 1 stage) with no worsening of NAS” value was “about 50%”; the “patients with normalization of liver enzymes” value is ≥ 50%; the “patients with resolution of NASH (NAS 0 or 1) with no worsening of liver fibrosis” value is listed as “about 30%”; the “pruritus outcomes (NASH PRO, 5-D pruritus or VAS)” value is reported as “no significant pruritus outcomes”. Further, the “reduction of hepatic fat, absolute” value in the series with NASH patients worked out at 5%. In addition, the FGF19 result with FGF19 is recorded as “continues to rise”. Besides, the “NAFLD activity score (NAS)” value with STAM mice (doses 0.1 and 0.3 mg/kg, qd orally weeks 9-12) was “significant decrease”. Besides, the fibrosis area result in the series on STAM mice (in comparison with baseline group) is “decreased in comparison with baseline group”. In addition, in the series on STAM mice (mouse, in vivo), the “pericellular fibrosis (Sirius Red-positive areas)” value was “statistically significant dose-dependent reduction”. In the series on STAM mice (tropifexor qd orally weeks 9-12, relative to baseline group), the liver triglycerides result was “reduction in liver triglycerides”. Also, the “levels of most cholestatic markers” value in series [2] (1.0 mg/kg dose, oral qd 5 days) is listed as “normalized to corresponding levels of vehicle-treated non-cholestatic control animals”. Also, in [2] (dose-dependent manner), the “collagen deposition and liver fibrosis” value is recorded as “highly reduced”; the “quantitation of collagen deposition (fibrosis)” value is on record as “significantly decreased”. The “AST, ALT, total BAs, total bilirubin, and GGT levels” value in [2] (doses as low as 0.3 mg/kg, oral qd 5 days) was “marked reduction”. The “liver histology: necrosis of the bile duct epithelium, bile duct hyperplasia, inflammatory cell infiltrates” value in series [2] (versus vehicle-treated cholestatic rats) is listed as “dose-dependent improvement”. Moreover, the AUC(0-t) in [3] (female) was 507 ng·h/mL. Also, in series [3] (male), the exposure AUC(0-t) stood at 898 ng·h/mL.
As for `CC[C@H]1[C@@H](O)[C@@H]2[C@H](CC[C@]3(C)[C@@H]([C@H](C)CCC(=O)O)CC[C@@H]23)[C@@]2(C)CC[C@@H](O)C[C@@H]12` [OCA, 6α-ethyl-chenodeoxycholic acid], the patients with pruritus in the series with NASH subjects is reported as 23%.
